For series [1] the following is noted: human, 15 min, 5 μM.
Series [2] is described as follows: Kinetic solubility in aqueous media (C.3.a). The format is physicochemical. Conditions: kinetic from dmso stock, aqueous buffer pH 7.4. Here is the method:
(§1) The solubility of a compound measures the ability of a compound to stay in solution. In the first method, the ability of a compound to stay in aqueous solution upon dilution (see example C.3.a) is measured. DMSO-stock solutions are diluted with a single aqueous buffer solvent in different consecutive steps. Mixtures are then scanned in the BD Gentest Solubility Scanner for the occurrence of precipitation. In the second method the solubility of a compound at different pH's can be measured with the use of a chemiluminescent nitrogen detector (see example C.3.b).
DMSO-stock solutions from 5000-9.8 μM (½ dilutions) are made in DMSO in a 96 well stock solution plate (200 μl per well). After each dilution the samples are mixed. Aliquots of these DMSO solutions (2 μl) are then transferred into 2 other 96 well buffer plates, containing 200 μl per well aqueous buffer. Each of the buffer plates contains either aqueous buffer pH 7.4 or aqueous buffer pH 4.0. After the last dilution the buffer plates are mixed and the samples are stabilized at room temperature for ½ hour. Dilution is done in duplicate for each compound to exclude occasional errors. Mixtures are then scanned in the BD Gentest Solubility Scanner for the occurrence of precipitation. Based on the absence/presence of precipitate in the mixtures the kinetic solubility is calculated by interpolation. Ranking is performed into the 3 classes.

Series [3] has as its target histone deacetylase (HeLa nuclear extracts). In words: In vitro assay for inhibition of histone deacetylase (Fluor de Lys, HeLa nuclear extracts). The format is biochemical. Conditions: HeLa nuclear extracts 60 μg/ml, 75 μM Fluor de Lys substrate. From the text:
The in vitro assay for inhibition of histone deacetylase (see example C.1) measures the inhibition of HDAC enzymatic activity obtained with the compounds of formula (I).
The HDAC Fluorescent Activity Assay/Drug Discovery Kit of Biomol (cat. No: AK-500-0001) was used. The HDAC Fluorescent Activity Assay is based on the Fluor de Lys (Fluorogenic Histone deAcetylase Lysyl) substrate and developer combination. The Fluor de Lys substrate, comprises an acetylated lysine side chain. Deacetylation of the substrate sensitizes the substrate so that, in the second step, treatment with the Fluor de Lys developer produces a fluorophore.
HeLa nuclear extracts (supplier: Biomol) were incubated at 60 μg/ml with 75 μM of substrate. The Fluor de Lys substrate was added in a buffer containing 25 mM Tris, 137 mM NaCl, 2.7 mM KCl and 1 mM MgCl2.6H2O at pH 7.4. After 30 min, 1 volume of the developer was added. The fluorophore was excited with 355 nm light and the emitted light (450 nm) was be detected on a fluorometric plate reader. For each experiment, controls (containing HeLa nuclear extract and buffer), a blank incubation (containing buffer but no HeLa nuclear extract) and samples (containing compound dissolved in DMSO and further diluted in buffer and HeLa nuclear extract) were run in parallel. In first instance, compounds were tested at a concentration of 10^−5M. […] All sample were tested 4 times. In each test the blank value was subtracted from both the control and the sample values. The control sample represented 100% of substrate deacylation. For each sample the fluorescence was expressed as a percentage of the mean value of the controls. […] Herein the effects of test compounds are expressed as pIC50 (the negative log value of the IC50-value) (see Table F-2).

For series [4], the system named is human A2780 ovarian carcinoma cells. In words: Antiproliferative activity on A2780 cells (MTT). The class given is cell-based. Conditions: 96 h, four days of incubation, read-out: Cellular activity pIC50 C.2. (converted). The protocol:
Cellular activity of the compounds of formula (I) was determined on A2780 tumour cells using a […] assay for cell toxicity or survival (Mosmann Tim, Journal of Immunological Methods 65: 55-63, 1983)(see example C.2).
All compounds tested were dissolved in DMSO and further dilutions were made in culture medium. Final DMSO concentrations never exceeded 0.1% (v/v) in cell proliferation assays. Controls contained A2780 cells and DMSO without compound and blanks contained DMSO but no cells. MTT was dissolved at 5 mg/ml in PBS. A glycine buffer comprised of 0.1 M glycine and 0.1 M NaCl buffered to pH 10.5 with NaOH (1 N) was prepared (all reagents were from Merck).
The human A2780 ovarian carcinoma cells (a kind gift from Dr. T. C. Hamilton [Fox Chase Cancer Centre, Pa., USA]) were cultured in RPMI 1640 medium supplemented with 2 mM L-glutamine, 50 μg/ml gentamicin and 10% fetal calf serum. Cells were routinely kept as monolayer cultures at 37° C. in a humidified 5% CO2 atmosphere. Cells were passaged once a week using a trypsin/EDTA solution at a split ratio of 1:40. All media and supplements were obtained from Life Technologies. Cells were free of mycoplasma contamination as determined using the Gen-Probe Mycoplasma Tissue Culture kit (supplier: BioMérieux).
Cells were seeded in NUNC™ 96-well culture plates (Supplier: Life Technologies) and allowed to adhere to the plastic overnight. Densities used for plating were 1500 cells per well in a total volume of 200 μl medium. After cell adhesion to the plates, medium was changed and drugs and/or solvents were added to a final volume of 200 μl. Following four days of incubation, medium was replaced by 200 μl fresh medium and cell density and viability was assessed using an MTT-based assay. […] For each sample, the mean value for cell growth (in absorbance units) was expressed as a percentage of the mean value for cell growth of the control. […] Herein the effects of test compounds are expressed as pIC50 (the negative log value of the IC50-value)(see Table F-2).

Series [5] concerns p21 promoter reporter A2780 clone tumour in nude mice. Kind of series: p21 induction capacity, in vivo method (tumour fluorescence). Conditions: s.c. A2780 reporter clone, 20-40 mpk orally or intravenously daily during 6 days. Here is the method:
The last method is an in vivo method wherein mice are used for screening the pharmaceutical activity of a compound. The above described stably transformed tumour cells can be administered to mice in an amount sufficient to effect production of a tumour. After the tumour cells had sufficient time to form a tumour, a potentially active compound can be administered to the animals and the effect of said compound on the tumour cells is evaluated by measuring the expression of the reporter gene. Incubation with pharmaceutical active compounds will result in an increase of reporter gene expression compared to the control levels (see example C.6.b.)
A selected clone was injected subcutaneous (10^7 cells/200 μl) into the flank of nude mice and a calliper measurable tumour was obtained after 12 days. From day 12 on, animals were dosed, orally or intraveinally, daily during 6 days with solvent and 20-40 mpk compound (4-10 animals each). Tumours were evaluated for fluorescence by the in-house developed Automated Whole Body Imaging System (Fluorescent stereomicroscope type Olympus® SZX12 equipped with a GFP filter and coupled to a CCD camera type JAI® CV-M90 controlled by a software package based on the IMAQ Vision Software from National Instruments®).

Series [6] can be described thus: Solubility with chemiluminescent nitrogen detector (C.3.b). The format is physicochemical. The settings on record: pH 2.3, aqueous buffer. The protocol: as §1
The solubility of a compound, at different pH's, can also be measured with the use of a chemiluminescent nitrogen detector (see Table F-2).

Series [7] in a line: Metabolic stability in liver microsomes. Conditions: reference compounds; 15 min incubation with microsomes, 5 μM.

In brackets after ≈: the same amount, converted by molar mass. Read-outs that look alike come from different tables or passages of the source.

Take `COc1cc(N)c(Cl)cc1C(=O)NC1CCN(CCCOc2ccc(F)cc2)CC1OC` (stereo not drawn) [Cisapride]: the “% metabolism” value in series [1] is given as 45%.
As to `CC(NCC1CCN(c2ncc(C(=O)NO)cn2)CC1)c1cn(C)c2ccccc12` (stereo not drawn) [Compound 1], the melting point was determined as 296 °C. Also, the solubility at 0.5 h in series [2] amounted to 7.8 µM (≈ 3.19 µg/mL). Besides, the “Enzymatic activity pIC50 C.1.” value in series [3] turned out to be 9.0. The IC50 in series [4] was 31.6 nM.
`Cn1cc(C2CCN(CC3CCN(c4ncc(C(=O)NO)cn4)CC3)C2)c2ccccc21` (stereo not drawn) [Compound 2] registered a melting point of 231 °C. In series [2], this molecule displayed a solubility at 0.5 h of 9.4 µM (≈ 4.08 µg/mL). For the same molecule, in series [3], the “Enzymatic activity pIC50 C.1.” value was found to be 8.9. For the same molecule, the IC50 in series [4] is 50.1 nM. Further, in series [5], the “Tumour fluorescence (reporter gene expression) versus control” value was “increased fluorescence as compared to control”. Further, in series [6], the solubility came to 1350 µg/mL (≈ 3.11 mM).
Molecule `Cn1cc(C2CCCN(CC3CCN(c4ncc(C(=O)NO)cn4)CC3)C2)c2ccccc21` (stereo not drawn) [Compound 3] had a melting point of 224 °C. Further, the concentration in solution in series [2] (solubility at 0.5 h) came to 15.6 µM (≈ 7 µg/mL). Also, the “Enzymatic activity pIC50 C.1.” value in series [3] is on record as 8.3. Also, in series [4], the IC50 is 31.6 nM.
The molecule `Cn1cc(C2CCN(CC3CCN(c4ccc(C(=O)NO)cn4)CC3)C2)c2ccccc21` (stereo not drawn) [Compound 4] registered a melting point of 70 °C.
On the same count and under the same terms, the figure for `Cn1cc(C2CCN(CC3CCN(c4ccc(C(=O)Nc5ccccc5N)cn4)CC3)C2)c2ccccc21` (stereo not drawn) [Compound 5] is 90 °C.
`CCCO` [propanol]: the “% metabolism” value in series [7] is 25%.

Source of the values: US7834025B2, “Substituted indolyl-alkyl-amino-derivatives as inhibitors of histone deacetylase” (Janssen Pharmaceutica N.V., priority 2006, dated 2010).
